pIC50: −log10 of the molar value.
Assays:
[1] = molecular target: T1, myeloperoxidase (MPO) (Homo sapiens (Human), UniProt P05164); assay: MPO peroxidation assay (Amplex Red assay); type: biochemical; conditions: potency range class
How it was run: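 Human MPO at 200 pM with 40 nM H2O2 preincubated 10 min at room temperature with inhibitor in 100 mM KPi pH 7.4. Reaction started with Amplex Red mixture (200 μM Amplex Red, 10 mM H2O2); resorufin fluorescence (Ex 535, Em 590 nm) read kinetically for 15 min. IC50 fitted from slopes over 180-540 s.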

[2] = molecular target: T1, myeloperoxidase (MPO); assay: MPO chlorination assay (APF assay); type: biochemical; conditions: potency range class
How it was run: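 Human MPO (200 pM) preincubated 10 min at room temperature with inhibitor and 120 mM NaCl in 100 mM KPi pH 7.4. Reaction started with APF plus 10 μM H2O2, and hypochlorite-generated fluorescein read kinetically (ex 485/em 535 nm) for 3 min. IC50 from linear-phase slopes fitted to a four-parameter equation.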

T1 sequence (P05164 49-745): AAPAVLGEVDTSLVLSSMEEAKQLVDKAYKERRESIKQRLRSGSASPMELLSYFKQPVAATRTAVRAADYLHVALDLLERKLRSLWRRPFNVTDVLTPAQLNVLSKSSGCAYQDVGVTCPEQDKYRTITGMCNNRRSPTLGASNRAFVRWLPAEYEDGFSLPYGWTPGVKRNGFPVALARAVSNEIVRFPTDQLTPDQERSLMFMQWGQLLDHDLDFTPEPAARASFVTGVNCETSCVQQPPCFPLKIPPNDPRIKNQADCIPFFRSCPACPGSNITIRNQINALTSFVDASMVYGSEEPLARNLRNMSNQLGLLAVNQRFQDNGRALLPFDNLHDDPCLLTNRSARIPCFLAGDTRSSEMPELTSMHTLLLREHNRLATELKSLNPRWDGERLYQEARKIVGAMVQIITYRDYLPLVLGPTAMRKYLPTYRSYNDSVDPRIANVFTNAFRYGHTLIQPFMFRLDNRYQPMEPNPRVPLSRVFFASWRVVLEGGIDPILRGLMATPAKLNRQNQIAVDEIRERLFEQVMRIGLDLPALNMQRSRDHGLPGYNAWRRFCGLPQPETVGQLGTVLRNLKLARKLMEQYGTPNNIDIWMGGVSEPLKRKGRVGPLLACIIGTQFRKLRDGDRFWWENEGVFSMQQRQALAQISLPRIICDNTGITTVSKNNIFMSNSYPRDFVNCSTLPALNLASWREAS

Structure (SMILES)	pIC50 [1]	pIC50 [2]
Nc1cc(Cc2cnn(Cc3ccc(C(=O)NCc4ncn[nH]4)cc3)c2)c2nn[nH]c2n1 [Example 81, 4-{[4-({5-Amino-3H-[1,2,3]triazolo[4,5-b]pyridin-7-yl}methyl)-1H-pyrazol-1-yl]methyl}-N-(1H-1,2,4-triazol-5-ylmethyl)benzamide]	7.00 to 9.00	6.00 to 7.00
NCc1ccc(Cn2cc(Cc3cc(N)nc4[nH]nnc34)cn2)cc1 [Example 250, 7-[(1-{[4-(Aminomethyl)phenyl]methyl}-1H-pyrazol-4-yl)methyl]-3H-[1,2,3]triazolo[4,5-b]pyridin-5-amine]	7.00 to 9.00	7.00 to 9.00
Nc1cc(Cc2cnn(CC3CCN(C(=O)OCc4ccccc4)CC3)c2)c2nn[nH]c2n1 [Example 65, Benzyl 4-((4-((5-amino-3H-[1,2,3]triazolo[4,5-b]pyridin-7-yl)methyl)-1H-pyrazol-1-yl)methyl)piperidine-1-carboxylate]	6.00 to 7.00	6.00 to 7.00
COc1ccc(-c2ccc(Cn3cc(Cc4cc(N)nc5[nH]nnc45)cn3)cc2)cn1 [Example 105, 7-((1-(4-(6-Methoxypyridin-3-yl)benzyl)-1H-pyrazol-4-yl)methyl)-3H-[1,2,3]triazolo[4,5-b]pyridin-5-amine]	6.00 to 7.00	6.00 to 7.00
COC(=O)[C@@H]1C[C@@H](Oc2cccc(Cn3cc(Cc4cc(N)nc5[nH]nnc45)cn3)c2)CN1 [Example 245, Methyl (2S,4R)-4-(3-{[4-({5-amino-3H-[1,2,3]triazolo[4,5-b]pyridin-7-yl}methyl)-1H-pyrazol-1-yl]methyl}phenoxy)pyrrolidine-2-carboxylate]	6.00 to 7.00	6.00 to 7.00
Nc1cc(Cc2cnn(Cc3ccc4c(c3)C(c3ccccc3)CNC4)c2)c2nn[nH]c2n1 (stereo not drawn) [Example 261, 7-({1-[(4-Phenyl-1,2,3,4-tetrahydroisoquinolin-6-yl)methyl]-1H-pyrazol-4-yl}methyl)-3H-[1,2,3]triazolo[4,5-b]pyridin-5-amine]	7.00 to 9.00	7.00 to 9.00
Nc1cc(Cc2cnn(Cc3ccc(C(=O)NCc4ccc(=O)[nH]c4)cc3)c2)c2nn[nH]c2n1 [Example 94, 4-{[4-({5-Amino-3H-[1,2,3]triazolo[4,5-b]pyridin-7-yl}methyl)-1H-pyrazol-1-yl]methyl}-N-[(6-oxo-1,6-dihydropyridin-3-yl)methyl]benzamide]	7.00 to 9.00	6.00 to 7.00
Cc1cc(-n2cc(Cc3cc(N)nc4[nH]nnc34)cn2)ccc1F [Example 10, 7-((1-(4-Fluoro-3-methylphenyl)-1H-pyrazol-4-yl)methyl)-3H-[1,2,3]triazolo[4,5-b]pyridin-5-amine]	7.00 to 9.00	6.00 to 7.00
CC(C)C1C[C@@H](c2cccc(Cn3cc(Cc4cc(N)nc5[nH]nnc45)cn3)c2)CN1 (stereo partly drawn) [Example 205, 7-{[1-({3-[(3S)-5-(propan-2-yl)pyrrolidin-3-yl]phenyl}methyl)-1H-pyrazol-4-yl]methyl}-3H-[1,2,3]triazolo[4,5-b]pyridin-5-amine]	7.00 to 9.00	7.00 to 9.00
Nc1cc(Cc2cnn(Cc3ccc(-c4ccccc4)cc3)c2)c2nn[nH]c2n1 [Example 39, 7-((1-([1,1′-Biphenyl]-4-ylmethyl)-1H-pyrazol-4-yl)methyl)-3H-[1,2,3]triazolo[4,5-b]pyridin-5-amine]	7.00 to 9.00	6.00 to 7.00
Nc1cc(Cc2cnn(Cc3ccccc3OCc3ccccc3)c2)c2nn[nH]c2n1 [Example 263, 7-[(1-{[2-(Benzyloxy)phenyl]methyl}-1H-pyrazol-4-yl)methyl]-3H-[1,2,3]triazolo[4,5-b]pyridin-5-amine]	7.00 to 9.00	6.00 to 7.00
Nc1cc(Cc2cnn(Cc3cccc(C(F)(F)F)c3)c2)c2nn[nH]c2n1 [Example 62, 7-((1-(3-(Trifluoromethyl)benzyl)-1H-pyrazol-4-yl)methyl)-3H-[1,2,3]triazolo[4,5-b]pyridin-5-amine]	7.00 to 9.00	6.00 to 7.00
Nc1cc(Cc2cnn(Cc3cccc(OC(F)F)c3)c2)c2nn[nH]c2n1 [Example 61, 7-((1-(3-(Difluoromethoxy)benzyl)-1H-pyrazol-4-yl)methyl)-3H-[1,2,3]triazolo[4,5-b]pyridin-5-amine]	7.00 to 9.00	7.00 to 9.00
Nc1cc(Cc2cnn(Cc3ccccc3C3CCNCC3)c2)c2nn[nH]c2n1 [Example 215, 7-[(1-{[2-(Piperidin-4-yl)phenyl]methyl}-1H-pyrazol-4-yl)methyl]-3H-[1,2,3]triazolo[4,5-b]pyridin-5-amine]	7.00 to 9.00	6.00 to 7.00
Nc1cc(Cc2cnn(Cc3cccc(CN4CCOCC4)c3)c2)c2nn[nH]c2n1 [Example 256, 7-[(1-{[3-(Morpholin-4-ylmethyl)phenyl]methyl}-1H-pyrazol-4-yl)methyl]-3H-[1,2,3]triazolo[4,5-b]pyridin-5-amine]	6.00 to 7.00	6.00 to 7.00
C[C@@H]1CN(c2cc(Cn3cc(Cc4cc(N)nc5[nH]nnc45)cn3)ccc2F)C[C@H](C)N1 [Example 226, 7-{[1-({3-[cis-3,5-Dimethylpiperazin-1-yl]-4-fluorophenyl}methyl)-1H-pyrazol-4-yl]methyl}-3H-[1,2,3]triazolo[4,5-b]pyridin-5-amine]	7.00 to 9.00	6.00 to 7.00
Nc1cc(Cc2cnn(Cc3cccc(OCc4ccccc4)c3)c2)c2nn[nH]c2n1 [Example 99, 7-((1-(3-(Benzyloxy)benzyl)-1H-pyrazol-4-yl)methyl)-3H-[1,2,3]triazolo[4,5-b]pyridin-5-amine]	7.00 to 9.00	7.00 to 9.00
Nc1cc(Cc2cnn(Cc3cc([C@@H]4CCNC4)cc(F)c3F)c2)c2nn[nH]c2n1 [Example 199, 7-{[1-({2,3-Difluoro-5-[(3S)-pyrrolidin-3-yl]phenyl}methyl)-1H-pyrazol-4-yl]methyl}-3H-[1,2,3]triazolo[4,5-b]pyridin-5-amine]	7.00 to 9.00	7.00 to 9.00
Nc1cc(Cc2cnn(Cc3ccc4c(c3)CNCC4)c2)c2nn[nH]c2n1 [Example 153, 7-{[1-(1,2,3,4-Tetrahydroisoquinolin-7-ylmethyl)-1H-pyrazol-4-yl]methyl}-3H-[1,2,3]triazolo[4,5-b]pyridin-5-amine]	7.00 to 9.00	7.00 to 9.00
Nc1cc(Cc2cnn(Cc3cccc(-c4ccccn4)c3)c2)c2nn[nH]c2n1 [Example 133, 7-[(1-{[3-(Pyridin-2-yl)phenyl]methyl}-1H-pyrazol-4-yl)methyl]-3H-[1,2,3]triazolo[4,5-b]pyridin-5-amine]	7.00 to 9.00	7.00 to 9.00
Nc1cc(Cc2cnn(Cc3cccc(N4CC5C(N)C5C4)c3)c2)c2nn[nH]c2n1 [Example 229, (1R,5S,6S)-3-(3-{[4-({5-Amino-3H-[1,2,3]triazolo[4,5-b]pyridin-7-yl}methyl)-1H-pyrazol-1-yl]methyl}phenyl)-3-azabicyclo[3.1.0]hexan-6-amine]	6.00 to 7.00	7.00 to 9.00
Nc1cc(Cc2cnn(Cc3cccc(Br)c3)c2)c2nn[nH]c2n1 [Example 101, 7-((1-(3-Bromobenzyl)-1H-pyrazol-4-yl)methyl)-3H-[1,2,3]triazolo[4,5-b]pyridin-5-amine]	7.00 to 9.00	7.00 to 9.00
Nc1cc(Cc2cnn(Cc3cccc(OC[C@@H]4CCCN4)c3)c2)c2nn[nH]c2n1 [Example 242, 7-{[1-({3-[(2S)-Pyrrolidin-2-ylmethoxy]phenyl}methyl)-1H-pyrazol-4-yl]methyl}-3H-[1,2,3]triazolo[4,5-b]pyridin-5-amine]	7.00 to 9.00	7.00 to 9.00
Nc1cc(Cc2cnn(Cc3ccc(Cn4ccnc4)cc3)c2)c2nn[nH]c2n1 [Example 110, 7-((1-(4-((1H-Imidazol-1-yl)methyl)benzyl)-1H-pyrazol-4-yl)methyl)-3H-[1,2,3]triazolo[4,5-b]pyridin-5-amine]	7.00 to 9.00	7.00 to 9.00
CN(C)CC(=O)NCc1ccc(Cn2cc(Cc3cc(N)nc4[nH]nnc34)cn2)cc1 [Example 251, N-[(4-{[4-({5-Amino-3H-[1,2,3]triazolo[4,5-b]pyridin-7-yl}methyl)-1H-pyrazol-1-yl]methyl}phenyl)methyl]-2-(dimethylamino)acetamide]	7.00 to 9.00	6.00 to 7.00
Cc1cccc(-n2cc(Cc3cc(N)nc4[nH]nnc34)cn2)c1 [Example 25, 7-((1-(3-Methylphenyl)-1H-pyrazol-4-yl)methyl)-3H-[1,2,3]triazolo[4,5-b]pyridin-5-amine]	7.00 to 9.00	6.00 to 7.00
Nc1cc(Cc2cnn(-c3cccc(Cl)c3)c2)c2nn[nH]c2n1 [Example 7, 7-((1-(3-Chlorophenyl)-1H-pyrazol-4-yl)methyl)-3H-[1,2,3]triazolo[4,5-b]pyridin-5-amine]	7.00 to 9.00	7.00 to 9.00
Nc1cc(Cc2cnn(Cc3cccc(Oc4cccc(C5CCNCC5)c4)c3)c2)c2nn[nH]c2n1 [Example 236, 7-{[1-({3-[3-(Piperidin-4-yl)phenoxy]phenyl}methyl)-1H-pyrazol-4-yl]methyl}-3H-[1,2,3]triazolo[4,5-b]pyridin-5-amine]	7.00 to 9.00	7.00 to 9.00
Nc1cc(Cc2cnn(Cc3cccc(C4CCNCC4F)c3)c2)c2nn[nH]c2n1 (stereo not drawn) [Example 216, 7-[(1-{[3-(3-Fluoropiperidin-4-yl)phenyl]methyl}-1H-pyrazol-4-yl)methyl]-3H-[1,2,3]triazolo[4,5-b]pyridin-5-amine]	7.00 to 9.00	7.00 to 9.00
CCCNC(=O)c1ccc(Cn2cc(Cc3cc(N)nc4[nH]nnc34)cn2)cc1 [Example 88, 4-{[4-({5-Amino-3H-[1,2,3]triazolo[4,5-b]pyridin-7-yl}methyl)-1H-pyrazol-1-yl]methyl}-N-propylbenzamide]	7.00 to 9.00	6.00 to 7.00

Reference: patent US10407422B2, “Triazolopyridine inhibitors of myeloperoxidase” (priority 2015, dated 2019)
